From patent publication US7598250B2, “Cyclic amine BACE-1 inhibitors having a heterocyclic substituent” (Schering Corporation, priority 2003, dated 2009) come the findings set out here.

As usually defined, the IC50 is the concentration at which inhibition is half-maximal.

In the assay the target is T1, sproBACE1 (soluble human BACE1) (Homo sapiens, UniProt P56817).
T1 construct: sBACE1, corresponding to amino acids 1-454; made in house; host or cells: Sf9 insect cells (baculovirus), secreted into the medium
The assay can be described thus: Peptide Hydrolysis Assay (HTRF, EuK-biotin labeled APPsw substrate). The class given is biochemical. The following applies: 7 nM sproBACE1, APPsw substrate, pH 5.0, 3 hr at 30° C., HTRF 665/620 ratio. An excerpt:
A predicted soluble form of human BACE1 (sBACE1, corresponding to amino acids 1-454) was generated from the full length BACE1 cDNA (full length human BACE1 cDNA in pCDNA4/mycHisA construct; University of Toronto) by PCR using the advantage-GC cDNA PCR kit (Clontech, Palo Alto, Calif.). A HindIII/Pmel fragment from pCDNA4-sBACE1myc/His was blunt ended using Klenow and subcloned into the Stu I site of pFASTBACI(A) (Invitrogen). A sBACE1mycHis recombinant bacmid was generated by transposition in DH10Bac cells(GIBCO/BRL). Subsequently, the sBACE1mycHis bacmid construct was transfected into sf9 cells using CellFectin (Invitrogen, San Diego, Calif.) in order to generate recombinant baculovirus. […]
Proteins, were eluted from the Q-sepharose column with Buffer B (20 mM HEPES, pH 8.0, 500 mM NaCl). […] Peak protein fractions as determined by the Bradford Assay (Biorad, Calif.) were concentrated using a Centricon 30 concentrator (Millipore). sBACE1 purity was estimated to be ˜90% as assessed by SDS-PAGE and Commassie Blue staining. […]
IC50 determinations for inhibitors, (I), were determined by measuring the percent change of the relative fluorescence at 665 nm divided by the relative fluorescence at 620 nm, (665/620 ratio), in the presence of varying concentrations of I and a fixed concentration of enzyme and substrate. […]
In general terms: TR-FRET usually uses a lanthanide donor and a delayed reading to cut background.

T1 sequence (P56817 22-454): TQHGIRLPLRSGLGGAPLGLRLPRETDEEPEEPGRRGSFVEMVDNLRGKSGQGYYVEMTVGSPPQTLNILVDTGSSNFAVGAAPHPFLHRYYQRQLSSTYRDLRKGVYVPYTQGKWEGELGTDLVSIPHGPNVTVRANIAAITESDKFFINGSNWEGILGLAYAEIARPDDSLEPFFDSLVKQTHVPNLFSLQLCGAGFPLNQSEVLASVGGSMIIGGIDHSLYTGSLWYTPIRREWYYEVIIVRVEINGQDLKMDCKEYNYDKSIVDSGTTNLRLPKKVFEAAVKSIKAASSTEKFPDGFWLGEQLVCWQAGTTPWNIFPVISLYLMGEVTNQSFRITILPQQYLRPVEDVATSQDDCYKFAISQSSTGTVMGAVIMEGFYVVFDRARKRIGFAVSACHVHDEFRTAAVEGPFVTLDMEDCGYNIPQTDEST

In the case of `CCCCCN1CC(C(=O)NC(Cc2cc(F)cc(F)c2)[C@H](O)[C@@H]2NCCN(Cc3ccccc3)C2=O)N(Cc2ccccc2)C1=O` (stereo partly shown) [Example 5FF], the IC50 is 1 nM.
